# Laboratory results from patent publication US11179348B2, “Combination comprising pterostilbene for the treatment of cancer” (FUNDACIÓN UNIVERSIDAD CATÓLICA DE VALENCIA SAN VICENTE …, priority 2015, dated 2021).
# Columns and labels:
# CRH mRNA = experiment: CRH expression in the hypothalamic PVN (in situ hybridization); type: in vivo; settings: melanoma-bearing mice; significant in MeWo- and MelJuso-bearing mice
# Procedure: CRH Expression in the Brain (In Situ Hybridization).
# Sections of 10 μm of the PVN were cut according to a mouse brain atlas (Allen Institute for brain science, http://www.brain-map.org) on a cryostat, mounted on polysine microscope slides (Menzel-Glazer, Braunschweig, Germany), and stored at −80° C. for 24 h. Then sections were fixed in 4% paraformaldehyde, further permeabilized by proteinase K treatment, acetylated twice with 0.25% acetic anhydride in 0.1 M triethanolamine, and dehydrated in a graded ethanol series. Hybridization, carried out as described before (Lachize, S. et al. Proc Natl Acad Sci USA 106, 8038-8042 (2009)), was performed using specific 48-mer, ^35S-labeled oligonucleotide probes for murine CRH mRNA (5′-GGCCCGCGGCGCTCCAGAGACGGATCCCCTGCTCAGCAGGGCCCTGCA-3′) (SEQ ID NO: 1). Hybridized slices were exposed to BioMax MR film (Kodak, Rochester, N.Y.). The mRNA expression of CRH in the PVN was quantified as gray density minus background in digitized images using the NIH ImageJ 1.6 program (http://rsb.info.nih.gov/ij). Bilateral measures were taken from two to four PVN sections for each mouse, which were pooled to provide individual means per mouse. For tissue background, the optical density of a nonhybridized region outside the PVN was measured.
# [1] = system: AsPC-1 pancreatic cancer cells; experiment: Nrf2- and redox state-related enzyme activities and metabolites in AsPC-1 cells growing in vivo; set-up: species or system human; settings: AsPC-1, in vivo +Pter, day 28
# Procedure: To measure enzyme activity, isolated tumor cells were homogenized in 0.1 M phosphate buffer (pH 7.2) at 4° C. GCL and GSS activities were measured as described previously (Obrador, E. et al. Hepatology 35, 74-81 (2002)). GPX (selenium dependent) activity was measured as described by Flohé and Gunzler (Flohe, L. & Gunzler, W. A. Methods Enzymol 105, 114-121 (1984)) using H2O2 as a substrate. GSR activity was determined as described by Akerboom and Sies (Akerboom, T. P. et al, Bull Eur Physiopathol Respir 17 Suppl, 221-227 (1981)). GGT activity was measured as described previously (Obrador, E. et al. Hepatology 35, 74-81 (2002)). GST activity was measured using an assay kit from Sigma. TXNRD activity, defined by the concentration of sodium-lipoate (disulfide) reduced to dehydrolipoate (dithiol) per milligram protein, was measured as previously described (Javvadi, P. et al. Cancer Res 70, 1941-1950 (2010)). SOD activity was measured as described by Flohé and Otting (Flohe, L. & Otting, F. Methods Enzymol 105, 93-104 (1984).) using 2 mM cyanide in the assay medium to distinguish mangano-type enzyme (SOD2) from the cuprozinc type (SOD1). CAT activity was analyzed as described by Aebi (Aebi, H. Methods Enzymol 105, 121-126 (1984)). NOX activity was measured by chemiluminescence following the methodology of Wind et al. (Wind, S. et al. Comparative pharmacology of chemically distinct NADPH oxidase inhibitors. Br J Pharmacol 161, 885-898 (2010)). Protein concentration was determined with the Pierce BCA protein assay (Fisher Scientific, Waltham, Mass.). […]
# GSH, GSSG, NADP^+ and NADPH Determination.
# GSH and GSSG were determined, following procedures previously described (Obrador, E. et al. PLoS One 9, e96466 (2014)), by LC/MS using the same equipment described above for pterostilbene determination. Cell processing was performed according to published methodology, where rapid N-ethylmaleimide derivatization was used to prevent GSH auto-oxidation (Asensi, M. et al. Anal Biochem 217, 323-328 (1994)). NADP^+ and NADPH were quantitated using an assay kit from Sigma (St. Louis, Mo.).
smiles,measurement,setting,value
"COc1cc(/C=C/c2ccc(O)cc2)cc(OC)c1 [Pter, trans-3,5-dimethoxy-4′-hydroxystilbene]",CRH mRNA expression in the hypothalamic PVN,CRH mRNA,further decrease
same,CAT,[1],1.2 ± 0.3 mU/10^6 cells
same,G6PDH,[1],317 ± 84 mU/10^6 cells
same,GCL,[1],85 ± 27 mU/10^6 cells
same,GGT,[1],27.5 ± 7.4 mU/10^6 cells
same,GPX,[1],15.0 ± 2.6 mU/10^6 cells
same,GSH,[1],10.4 ± 2.0 nmol/10^6 cells
same,GSH/GSSG,[1],35 ± 6
same,GSR,[1],5.5 ± 1.2 mU/10^6 cells
same,GSS,[1],12.4 ± 2.7 mU/10^6 cells
same,GSSG,[1],0.3 ± 0.1 nmol/10^6 cells
same,GST,[1],8.0 ± 1.5 mU/10^6 cells
same,H2O2,[1],1.4 ± 0.3 nmol/10^6 cells × min
same,IDH,[1],1.0 ± 0.3 U/10^6 cells
same,ME,[1],55 ± 15 mU/10^6 cells
same,NADPH,[1],0.05 ± 0.02 nmol/mg prot
same,NADPH/NADP^+,[1],1.7 ± 0.4
same,NADP^+,[1],0.03 ± 0.01 nmol/mg prot
same,NOX,[1],115 ± 33 R.L.U./10^6 cells
same,O2′−,[1],"8.4 ± 2.4 ΔFL1, a.u."
same,SOD1,[1],0.2 ± 0.05 U/10^6 cells
same,SOD2,[1],0.05 ± 0.02 U/10^6 cells
same,TXN,[1],0.3 ± 0.15 μg/10^6 cells
same,TXNRD,[1],0.7 ± 0.2 U/10^6 cells
